According to the NIST ThermoML archive (doi:10.1016/j.jct.2018.05.027):

Assay: xn = mol fraction of the nth substance listed
Details: Liquid, Vibrating wire viscometry

Cc1ccc(C)c(C)c1 [1,2,4-trimethylbenzene] + CCC(C)O
viscosity [mPa·s]
Details | 293.15 K | 313.15 K | 333.15 K | 353.15 K
100 kPa, x2 = 0.3011 | 0.9506 | 0.708 | 0.539 | 0.43
100 kPa, x2 = 0.5001 | 1.108 | 0.7802 | 0.5777 | 0.4439
100 kPa, x2 = 0.7999 | 1.834 | 1.097 | 0.7185 | 0.4963
1000 kPa, x2 = 0.3011 | 0.9531 | 0.7098 | 0.5411 | 0.436
1000 kPa, x2 = 0.5001 | 1.117 | 0.7964 | 0.5881 | 0.4481
1000 kPa, x2 = 0.7999 | 1.863 | 1.131 | 0.7301 | 0.5
5000 kPa, x2 = 0.3011 | 0.9988 | 0.7427 | 0.571 | 0.4507
5000 kPa, x2 = 0.5001 | 1.173 | 0.8335 | 0.6122 | 0.467
5000 kPa, x2 = 0.7999 | 1.964 | 1.187 | 0.7583 | 0.5157
10000 kPa, x2 = 0.3011 | 1.051 | 0.7727 | 0.5928 | 0.4678
10000 kPa, x2 = 0.5001 | 1.235 | 0.8676 | 0.6383 | 0.4891
10000 kPa, x2 = 0.7999 | 2.099 | 1.244 | 0.7963 | 0.5386
20000 kPa, x2 = 0.3011 | 1.137 | 0.8356 | 0.634 | 0.4988
20000 kPa, x2 = 0.5001 | 1.329 | 0.9318 | 0.6899 | 0.5215
20000 kPa, x2 = 0.7999 | 2.326 | 1.363 | 0.8656 | 0.584
30000 kPa, x2 = 0.3011 | 1.238 | 0.9034 | 0.6817 | 0.5358
30000 kPa, x2 = 0.5001 | 1.462 | 1.031 | 0.739 | 0.5615
30000 kPa, x2 = 0.7999 | 2.611 | 1.515 | 0.9569 | 0.6316
40000 kPa, x2 = 0.3011 | 1.334 | 0.9814 | 0.7313 | 0.57
40000 kPa, x2 = 0.5001 | 1.591 | 1.108 | 0.7961 | 0.5952
40000 kPa, x2 = 0.7999 | 2.897 | 1.666 | 1.039 | 0.6809
50000 kPa, x2 = 0.3011 | 1.452 | 1.055 | 0.784 | 0.605
50000 kPa, x2 = 0.5001 | 1.739 | 1.204 | 0.8558 | 0.6372
50000 kPa, x2 = 0.7999 | 3.229 | 1.835 | 1.13 | 0.7349
60000 kPa, x2 = 0.3011 | 1.57 | 1.132 | 0.8388 | 0.645
60000 kPa, x2 = 0.5001 | 1.906 | 1.3 | 0.9176 | 0.6813
60000 kPa, x2 = 0.7999 | 3.561 | 2.005 | 1.219 | 0.7906
70000 kPa, x2 = 0.3011 | 1.702 | 1.224 | 0.8962 | 0.6863
70000 kPa, x2 = 0.5001 | 2.061 | 1.394 | 0.9822 | 0.726
70000 kPa, x2 = 0.7999 | 3.917 | 2.187 | 1.321 | 0.849
80000 kPa, x2 = 0.3011 | 1.851 | 1.303 | 0.9559 | 0.7294
80000 kPa, x2 = 0.5001 | 2.257 | 1.502 | 1.046 | 0.7743
80000 kPa, x2 = 0.7999 | 4.274 | 2.368 | 1.424 | 0.9092
100000 kPa, x2 = 0.3011 | 2.152 | 1.491 | 1.089 | 0.821
100000 kPa, x2 = 0.5001 | 2.62 | 1.716 | 1.196 | 0.871
100000 kPa, x2 = 0.7999 | 5.09 | 2.741 | 1.653 | 1.04
120000 kPa, x2 = 0.3011 | 2.47 | 1.667 | 1.238 | 0.9204
120000 kPa, x2 = 0.5001 | 3.033 | 1.936 | 1.366 | 0.9782
120000 kPa, x2 = 0.7999 | 6.117 | 3.219 | 1.898 | 1.175
140000 kPa, x2 = 0.3011 | 2.838 | 1.904 | 1.385 | 1.038
140000 kPa, x2 = 0.5001 | 3.493 | 2.192 | 1.528 | 1.093
140000 kPa, x2 = 0.7999 | 7.143 | 3.693 | 2.144 | 1.339
